Six compounds from ChEMBL document CHEMBL1201862, “PubChem BioAssay data set” (2004) can be followed below.

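1) Cells in 96-well plates. 2) Compound, 48 h, 5 concentrations. 3) Linear interpolation between surrounding doses. 4) Unreached endpoint = highest concentration. Abbreviation: GI50, concentration required for 50% inhibition of growth.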 Calls of active or inactive are those of the source. Cut-off read from the data, not from the text of the source: active = GI50 up to about 1.1 µM and inactive = higher.

Among the test systems are 786-0; A498; A549; BT-549; EKVX; HOP-92; KM12; M19-MEL; MDA-MB-231; MDA-MB-435; NCI-H522; OVCAR-4; OVCAR-5; RXF 393; SF-268; SK-MEL-2; SK-MEL-5; SK-OV-3; SW-620; UACC-257.
Holding throughout (assay): NCI-60 cell line screen, 48 h

Regarding `COC(=O)c1ccc2c(c1)C(NC(C)=O)CCc1cc(OC)c(OC)c(OC)c1-2` (stereo not given), the GI50 in the assay with 786-0 was 15 nM (active); in the assay with A498 it was 13.3 nM (active); in the assay on A549, 18 nM (active); with BT-549, 104 nM (active); with EKVX, 4190 nM (inactive); in the assay on HOP-92 it was 39.1 nM (active). The GI50 with KM12 was < 11.5 nM (active); in the assay on M19-MEL, 23.5 nM (active); in the assay on MDA-MB-231, < 20 nM (active); in the assay on MDA-MB-435, < 10 nM (active); in the assay on NCI-H522, 18 nM (active); in the assay on OVCAR-4, 11900 nM (inactive). Besides, the GI50 in the assay with OVCAR-5 is 112 nM (active); in the assay on RXF 393 it was 13.9 nM (active); in the assay with SF-268 it was 13.9 nM (active); in the assay on SK-MEL-2 it was 20.8 nM (active); in the assay with SK-MEL-5, 13 nM (active); in the assay on SK-OV-3, 18.8 nM (active). Further, the figures for the GI50 in the assay on SW-620 and with UACC-257 were 12.9 nM (active) and 530 nM (active), respectively.

As to `COC(=O)NC1C(C)OC(OC2C/C=C(/C)C3C=CC4C(OC5CC(OC6CCC(OC7CC(O)C(OC8CCC(O)C(C)O8)C(C)O7)C(C)O6)C(OC(C)=O)C(C)O5)C(C)CC(C)C4C3(C)/C(O)=C3/C(=O)OC4(CC(C=O)=CC(O)C4/C=C\2C)C3=O)CC1(C)[N+](=O)[O-]` (stereo not given), the GI50 with 786-0 was 861 nM (active); in the assay on A498, 668 nM (active); in the assay on A549, 1770 nM (inactive); in the assay with BT-549, 1040 nM (active); in the assay with EKVX, 1850 nM (inactive); with HOP-92 it was 1060 nM (active). Moreover, the GI50 is 809 nM (active) in the assay with KM12; 367 nM (active) in the assay with M19-MEL; 755 nM (active) in the assay on MDA-MB-231; 382 nM (active) in the assay with MDA-MB-435; 824 nM (active) in the assay on NCI-H522; 1820 nM (inactive) in the assay on OVCAR-4. Further, the GI50 in the assay with OVCAR-5 is 1930 nM (inactive); with RXF 393 it was 551 nM (active); in the assay on SF-268, 719 nM (active); in the assay with SK-MEL-2, 475 nM (active); in the assay with SK-MEL-5 it was 820 nM (active); with SK-OV-3 it was 2440 nM (inactive). In addition, the GI50 was 989 nM (active) with SW-620 and 724 nM (active) in the assay with UACC-257.

Take `COc1ccc(C(C)c2cc3c(cc2OC)OCO3)cc1` (stereo not given): the GI50 is 98 nM (active) in the assay on 786-0; 646 nM (active) in the assay on A498; 218 nM (active) in the assay with A549; 51800 nM (inactive) with BT-549; 17400 nM (inactive) in the assay on EKVX; 1450 nM (inactive) in the assay on HOP-92. The GI50 was 119 nM (active) with KM12; 395 nM (active) in the assay on M19-MEL; 112 nM (active) in the assay with MDA-MB-231; 17.5 nM (active) in the assay on MDA-MB-435; 45.5 nM (active) in the assay on NCI-H522; 49400 nM (inactive) in the assay with OVCAR-4. The GI50 was 3480 nM (inactive) in the assay with OVCAR-5; 264 nM (active) in the assay on RXF 393; 614 nM (active) in the assay on SF-268; 76.7 nM (active) with SK-MEL-2; 65.9 nM (active) with SK-MEL-5; 200 nM (active) with SK-OV-3. Further, the GI50 was 82.8 nM (active) in the assay on SW-620 and 7380 nM (inactive) in the assay with UACC-257.

On to `CC(=O)OC1CC(n2cc(F)c(=O)[nH]c2=O)OC1CO` (stereo not given), for which the GI50 was 494 nM (active) in the assay with 786-0; 69.3 nM (active) in the assay with A498; 143 nM (active) in the assay with A549; 5500 nM (inactive) in the assay on BT-549; 20000 nM (inactive) in the assay on EKVX; 1490 nM (inactive) in the assay on HOP-92. For the same compound, the GI50 was > 93300 nM (inactive) in the assay on KM12; > 100000 nM (inactive) with M19-MEL; > 55200 nM (inactive) with MDA-MB-231; 15700 nM (inactive) in the assay on MDA-MB-435; 2150 nM (inactive) in the assay with NCI-H522; 59800 nM (inactive) in the assay on OVCAR-4. Also, the GI50 in the assay with OVCAR-5 was > 46700 nM (inactive); in the assay on RXF 393 it was 22200 nM (inactive); in the assay with SF-268, 80.7 nM (active); in the assay with SK-MEL-2, > 28800 nM (inactive); in the assay with SK-MEL-5, 1490 nM (inactive); in the assay on SK-OV-3, 61100 nM (inactive). Moreover, the GI50 with SW-620 is 10800 nM (inactive); in the assay on UACC-257 it was 49100 nM (inactive).

For `CC(=O)Nc1ccc(C(=O)NN2C(=O)C(Cl)C2c2ccc(Cl)cc2)cc1` (stereo not given), the GI50 was 18700 nM (inactive) with 786-0; > 72400 nM (inactive) in the assay on A549; 72600 nM (inactive) in the assay on BT-549; > 100000 nM (inactive) in the assay with EKVX; 26100 nM (inactive) with HOP-92; > 100000 nM (inactive) in the assay with KM12. Also, the GI50 with M19-MEL is > 100000 nM (inactive); in the assay with MDA-MB-231 it was 22100 nM (inactive); in the assay with MDA-MB-435, > 100000 nM (inactive); with NCI-H522 it was 38800 nM (inactive); with OVCAR-4, > 100000 nM (inactive); in the assay with OVCAR-5, > 74300 nM (inactive). For the same compound, the GI50 is 23300 nM (inactive) with SF-268; 41600 nM (inactive) with SK-MEL-2; > 100000 nM (inactive) in the assay on SK-MEL-5; 25400 nM (inactive) in the assay with SK-OV-3; > 100000 nM (inactive) with SW-620; > 100000 nM (inactive) in the assay on UACC-257.

Consider `CCc1cccc(C)c1NC(=O)CC1Sc2ccccc2NC1=O` (stereo not given), for which the GI50 was 29200 nM (inactive) in the assay on 786-0; 28600 nM (inactive) in the assay on A498; 44200 nM (inactive) in the assay on A549; 91800 nM (inactive) in the assay with EKVX; 32800 nM (inactive) in the assay with HOP-92; 34900 nM (inactive) with KM12. The GI50 in the assay on M19-MEL is 45400 nM (inactive); in the assay on NCI-H522 it was 20000 nM (inactive); with OVCAR-4, 75300 nM (inactive); in the assay on OVCAR-5 it was 42400 nM (inactive); in the assay on RXF 393, 16900 nM (inactive); with SF-268 it was 50700 nM (inactive). In addition, the GI50 in the assay with SK-MEL-2 was 33600 nM (inactive); in the assay with SK-MEL-5, 23400 nM (inactive); in the assay with SK-OV-3, 75700 nM (inactive); in the assay on SW-620 it was 37800 nM (inactive); with UACC-257 it was 11400 nM (inactive).
